Laboratory results taken from patent US9675592B2, “Methods and compositions for bacteria infections” (priority 2013, dated 2017).
In brackets after ≈: the same amount, converted by molar mass. Several values for one entry are separate records, joined by “and”; a condition that tells them apart may be missing. Equal entries are not always repeated. Where two headings read alike, the source gives them in different places.

Columns and labels:
[1] = test system: vancomycin intermediate resistant Staphylococcus aureus strain, VISA 2283; conditions: cited from earlier work; for MIC Van: vancomycin alone; for potentiation of vancomycin: VISA
[2] = test system: vanA containing VRSA strain VRS2; conditions: cited from earlier work; for MIC compound (Clo, Pyr, Gos): compound alone
[3] = test system: hetero VISA isolate, hVISA 2275; conditions: cited from earlier work; for MIC compound (Clo, Pyr, Gos): compound alone; for potentiation of vancomycin: hVISA
[4] = test system: vanA containing VRSA strain VRS1; conditions: cited from earlier work; for MIC compound (Clo, Pyr, Gos): compound alone
VraR = VraR (Staphylococcus aureus, UniProt Q7A4R9); assay: biochemical; format: binding; conditions: His-tagged VraR; NB = No Binding
VraR, sequence (Q7A4R9 whole entry, the tested form may be a part): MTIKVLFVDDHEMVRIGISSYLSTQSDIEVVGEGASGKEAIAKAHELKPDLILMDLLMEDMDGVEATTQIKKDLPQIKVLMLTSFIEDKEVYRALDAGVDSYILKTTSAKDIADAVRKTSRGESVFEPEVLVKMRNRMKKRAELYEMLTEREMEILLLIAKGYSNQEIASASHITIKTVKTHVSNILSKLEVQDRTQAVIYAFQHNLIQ

[5] = biological target: cytoplasmic domain of VraS (VraS-C) (Staphylococcus aureus, UniProt Q99SZ7); assay: biochemical; format: binding
cytoplasmic domain of VraS (VraS-C), sequence (Q99SZ7 70-347): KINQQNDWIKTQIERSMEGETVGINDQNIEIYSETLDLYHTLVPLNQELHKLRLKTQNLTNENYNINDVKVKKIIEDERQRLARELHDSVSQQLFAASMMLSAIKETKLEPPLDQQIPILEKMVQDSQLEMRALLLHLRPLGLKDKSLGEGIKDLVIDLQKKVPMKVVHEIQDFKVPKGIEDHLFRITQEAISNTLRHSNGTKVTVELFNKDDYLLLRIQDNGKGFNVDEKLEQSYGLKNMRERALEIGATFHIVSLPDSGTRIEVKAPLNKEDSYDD

[6] = biological target: PurC (unrelated protein, control) (Bacillus anthracis, UniProt Q81ZH5); format: binding; conditions: read-out: KD PurC (control)
PurC (unrelated protein, control), sequence (Q81ZH5 whole entry, looked up): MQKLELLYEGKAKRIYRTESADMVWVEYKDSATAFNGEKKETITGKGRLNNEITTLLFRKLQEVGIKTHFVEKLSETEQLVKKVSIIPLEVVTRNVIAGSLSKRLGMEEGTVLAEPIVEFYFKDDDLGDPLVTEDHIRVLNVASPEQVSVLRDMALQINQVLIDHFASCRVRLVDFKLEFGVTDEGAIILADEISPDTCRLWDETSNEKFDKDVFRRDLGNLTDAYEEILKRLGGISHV

[7] = test system: test strain 923 pPvra-lux (USA300 MRSA); assay: Primary screen, relative growth in presence of oxacillin; conditions: compound 10 μM with oxacillin 2 μg/mL, absorbance 24 h, <0.50 = dead cells = hit
multiple strains of MRSA = assay: MICs (minimal inhibitory concentrations) vs multiple strains of MRSA; format: cell-based, Staphylococcus aureus; conditions: for Ox MIC in presence of compound: compound at 0.25 mg/L; for Ox MIC alone: no compound
[8] = test system: vraSR promoter (Pvra-lux reporter in strain 923); format: cell-based, Staphylococcus aureus
Method: In the secondary screen each microtiter plate contained either cells in TSB alone (16 replicates), cells with oxacillin (2 μg/mL, 31 replicates), or cells with test compound and oxacillin (2 μg/mL, 49 wells). Each compound was assayed in four separate biological replicates. […]

[9] = test system: test strain 923 pPvra-lux; assay: Secondary screen / synergy confirmation of Top 40, relative growth with oxacillin; format: cell-based, Staphylococcus aureus; conditions: Top 40 library, compound at maximum non-GI conc
Method: In the secondary screen each microtiter plate contained either cells in TSB alone (16 replicates), cells with oxacillin (2 μg/mL, 31 replicates), or cells with test compound and oxacillin (2 μg/mL, 49 wells). Each compound was assayed in four separate biological replicates.
Synergy Confirmation of “Top 40”. […]

[10] = test system: test strain (923 pPvra-lux); assay: Growth inhibition by compound alone (maximum non-growth-inhibitory concentration); format: cell-based, Staphylococcus aureus; conditions: compound alone; maximum concentration where it did NOT inhibit growth
[11] = test system: vraSR promoter (Pvra-lux reporter in strain 923); assay: Primary screen, relative luminescence (vraSR expression); conditions: primary screen, compound 10 μM with oxacillin 2 μg/mL; <0.50 = vraSR repressed = hit
923 containing pPvra-lux = assay: Oxacillin MIC of test strain in 96-well format; format: cell-based, Staphylococcus aureus
[12] = test system: vraSR expression (Pvra-lux reporter in strain 923); assay: Validation of test strain: oxacillin induction of luminescence; format: cell-based, Staphylococcus aureus; conditions: luminescence of 923 Pvra-lux, 2 hours
strain 923 [13] = assay: Oxacillin MIC of strain 923; format: cell-based; conditions: Staphylococcus aureus; strain 923, cultured in the 96-well format
strain 923 [14] = conditions: strain 923, CLSI guidelines; cited from earlier work
[15] = isolate 1176, SCCmec II, ST 231
[16] = isolate 8004-01, SCCmec III, ST 239
[17] = isolate 8010-01, SCCmec IV, ST 8
[18] = isolate 8227-01, SCCmec IV, ST 87
[19] = isolate 11095, SCCmec II, ST 105
[20] = isolate Q2461, SCCmec VT, ST 59

CN[C@H](CC(C)C)C(=O)N[C@H]1C(=O)N[C@@H](CC(N)=O)C(=O)N[C@H]2C(=O)N[C@H]3C(=O)N[C@H](C(=O)N[C@H](C(=O)O)c4cc(O)cc(O)c4-c4cc3ccc4O)[C@H](O)c3ccc(c(Cl)c3)Oc3cc2cc(c3O[C@@H]2O[C@H](CO)[C@@H](O)[C@H](O)[C@H]2O[C@H]2C[C@](C)(N)[C@H](O)[C@H](C)O2)Oc2ccc(cc2Cl)[C@H]1O [Van, Vancomycin]
MIC Van ([1]; VISA 2283): 8 mg/L (≈ 5.52 µM)
MIC Van ([1]; VISA 2283, listed as vancomycin): 16 mg/L and 8 mg/L
MIC Van ([2]; vancomycin alone): 16 mg/L (≈ 11 µM)
MIC Van ([3]; vancomycin alone, hVISA 2275): 4 mg/L (≈ 2.76 µM)
MIC Van ([4]; vancomycin alone): 1024 mg/L (≈ 707 µM)

Cc1cc(/C=C/c2ccc3cc(N(C)C)ccc3[n+]2C)c(C)n1-c1ccccc1 [Pyr, Pyrvinium]
Kd (VraR): > 100 µM
Synergy category ([1]; VISA 2283): non syn
potentiation of vancomycin [1]: not
Synergy category [2]: synergistic (An FICi of ≦0.5 defines a synergistic interaction)
potentiation of vancomycin [2]: fully potentiated
MIC compound (Clo, Pyr, Gos) [2]: 1.12 mg/L
MIC (in combination) Clo+, Pyr+, Gos+ ([3]; MIC of the compound in combination with the indicated Van concentration, hVISA 2275): 0.56 mg/L
MIC compound (Clo, Pyr, Gos) ([3]; hVISA 2275): 16 mg/L
FICi V + compound ([3]; hVISA 2275): 0.54
Synergy category ([3]; hVISA 2275): partial (partially potentiated vancomycin (FIC i>0.5 and <1.0))
fold decrease Van MIC ([3]; hVISA 2275): 2 fold
potentiation of vancomycin [3]: partially potentiated
Van FIC ([3]; in combination with compound, hVISA 2275): 0.50
Clo FIC, Pyr FIC, Gos FIC ([3]; in combination with vancomycin, hVISA 2275): 0.04
MIC (in combination) Van+ ([3]; vancomycin MIC when used in combination with compound, hVISA 2275): 2 mg/L
binding to VraS-C ([5]; SPR): binds
RUmax VraS ([5]; new run with His-tagged VraS): 46.5 ± 2.9
Kd ([5]; new run with His-tagged VraS, NB = No Binding, read-out: KD VraS): 21.3 ± 3.6 µM
Kd [6]: > 100 µM
fold decrease Van MIC [4]: 64 fold
potentiation of vancomycin [4]: fully potentiated
MIC compound (Clo, Pyr, Gos) [4]: 2.24 mg/L

CCN(CC)CCOc1ccc(C(=C(Cl)c2ccccc2)c2ccccc2)cc1 [Clo, Clomiphene]
MIC (in combination) Clo+, Pyr+, Gos+ ([1]; MIC of the compound in combination with the indicated Van concentration, VISA 2283): 3 mg/L
FICi V + compound ([1]; VISA 2283): 0.75
Synergy category ([1]; VISA 2283): partial (partially potentiated vancomycin (FIC i>0.5 and <1.0))
potentiation of vancomycin [1]: partially potentiated
MIC compound (Clo, Pyr, Gos) ([1]; compound alone, VISA 2283): 12 mg/L (≈ 29.6 µM)
Van FIC ([1]; in combination with compound, VISA 2283): 0.5
Clo FIC, Pyr FIC, Gos FIC ([1]; in combination with vancomycin, VISA 2283): 0.25
MIC (in combination) Van+ ([1]; vancomycin MIC when used in combination with compound, VISA 2283): 4 mg/L
potentiation of vancomycin [2]: fully potentiated
MIC compound (Clo, Pyr, Gos) [2]: 12 mg/L (≈ 29.6 µM)
MIC compound (Clo, Pyr, Gos) ([3]; hVISA 2275): 12 mg/L (≈ 29.6 µM)
Synergy category ([3]; hVISA 2275): partial (partially potentiated vancomycin (FIC i>0.5 and <1.0))
potentiation of vancomycin [3]: partially potentiated
FICi V + compound [4]: 0.75
Synergy category [4]: partial (partially potentiated vancomycin (FIC i>0.5 and <1.0))
potentiation of vancomycin [4]: partially potentiated
MIC compound (Clo, Pyr, Gos) [4]: 12 mg/L (≈ 29.6 µM)

CSc1cccc(-c2nnc(NC(=O)c3nc4ccccc4s3)o2)c1 [F2645-0188]
Kd (VraR): > 100 µM
RG avg (relative growth) [7]: 0.03
Ox MIC in presence of compound (multiple strains of MRSA; isolate 923, SCCmec IV, ST 8): 2 mg/L
Ox MIC in presence of compound (multiple strains of MRSA; [15]): <0.5 mg/L
Ox MIC in presence of compound (multiple strains of MRSA; isolate 2169, SCCmec IV, ST 72): 0.5 mg/L
Ox MIC in presence of compound (multiple strains of MRSA; [16]): 64 mg/L
Ox MIC in presence of compound (multiple strains of MRSA; [17]): 0.5 mg/L
Ox MIC in presence of compound (multiple strains of MRSA; [18]): 0.5 mg/L
Ox MIC in presence of compound (multiple strains of MRSA; [19]): 32 mg/L
Ox MIC in presence of compound (multiple strains of MRSA; isolate 13113, SCCmec II, ST 5): <0.13 mg/L
Ox MIC in presence of compound (multiple strains of MRSA; isolate 13354, SCCmec IV, ST 5): <0.13 mg/L
Ox MIC in presence of compound (multiple strains of MRSA; isolate 14315, SCCmec IV, ST 1): <0.5 mg/L
Ox MIC in presence of compound (multiple strains of MRSA; [20]): 0.25 mg/L
RL Ox avg ([8]; Top 40 library, with oxacillin, compound at maximum non-GI conc): 0.05
vraSR repressing synergist ([8]; overall class from syn and rep): 1. confirmed
Kd ([5]; His-tagged VraS-C, SPR, read-out: KD): 56.1 ± 16.3 µM
binding to VraS-C ([5]; SPR): Binds
RUmax VraS ([5]; new run with His-tagged VraS): (74.1 ± 10.7)
RUmax VraS ([5]; previous run with untagged VraS): 325 ± 33
Kd ([5]; untagged VraS-C protein, SPR, read-out: KD): 13.2 ± 3.2 µM
RG Ox avg [9]: 0.03
maximum non-GI conc [10]: 40 µg/mL
Kd [6]: > 100 µM
RL avg (relative luminescence) [11]: 0.37

Cc1onc(-c2ccccc2)c1C(=O)N[C@@H]1C(=O)N2[C@@H]1SC(C)(C)[C@@H]2C(=O)O [oxacillin, reference compound]
MIC of oxacillin (923 containing pPvra-lux): 5 µg/mL
minimum concentration sufficient for maximal vraSR expression [12]: 2 µg/mL
Ox MIC alone (multiple strains of MRSA; isolate 923, SCCmec IV, ST 8): 16 mg/L
Ox MIC alone (multiple strains of MRSA; [15]): 32 mg/L
Ox MIC alone (multiple strains of MRSA; isolate 2169, SCCmec IV, ST 72): 16 mg/L
Ox MIC alone (multiple strains of MRSA; [16]): 256 mg/L
Ox MIC alone (multiple strains of MRSA; [17]): 16 mg/L
Ox MIC alone (multiple strains of MRSA; [18]): 2 mg/L
Ox MIC alone (multiple strains of MRSA; [19]): 256 mg/L
Ox MIC alone (multiple strains of MRSA; isolate 13113, SCCmec II, ST 5): 16 mg/L
Ox MIC alone (multiple strains of MRSA; isolate 13354, SCCmec IV, ST 5): 8 mg/L
Ox MIC alone (multiple strains of MRSA; isolate 14315, SCCmec IV, ST 1): 32 mg/L
Ox MIC alone (multiple strains of MRSA; [20]): 8 mg/L
MIC (strain 923 [13]): 8 µg/mL
24-h oxacillin MIC (strain 923 [14]): 16 to 32 µg/mL
